Test results: PMC10786919, “Design-rules for stapled peptides with in vivo activity and their application to Mdm2/X antagonists” (Nature Communications, 2024)
Converted amounts (≈) assume the structure as drawn. Read-outs that look alike come from different tables or passages of the source. Positions of bridges follow the written chain, without caps; N, C: chain ends. Non-standard residues stand in square brackets, D forms with d. Residues, ends and D or L forms follow the SMILES beside them. Lys(N3) = [N-]=[N+]=NCCCC[C@H](N)C(=O)O; R8 = C=CCCCCCC[C@@](C)(N)C(=O)O; Cba = N[C@@H](CC1CCC1)C(=O)O; S5 = C=CCCC[C@](C)(N)C(=O)O; βAla = NCCC(=O)O

Key:
in vitro = assay: in vitro
Source text: Further, there have been several literature reports[18]–[20] that highlight that the combination of hydrophobic character and positive charge can result in mast cell degranulation (MCD), a potentially fatal condition[18]–[20]. […] The NanoClick assay[22] determines permeability of azide-labeled peptides by combining intracellular copper-free click chemistry with NanoBRET technology. Specifically, if an azido-peptide achieves cytosolic exposure, it will react with a cyclooctyne-decorated Halotag construct that is fused with nanoluciferase. This reaction blocks the click labelling of a subsequently added azido-labeled acceptor dye, thus decreasing the NanoBRET signal in a manner that is target-binding agnostic.
This assay was previously described in detail. The assay was performed in 384-well white assay plates (PerkinElmer CUSG03874) using assay-ready frozen cells that had been transiently transfected with the NanoLuc-HaloTag vector that were thawed at plated in complete media at a density of 6000 cells/ well and incubated at 37 °C 5% CO2 overnight. DIBAC-CA was diluted in assay buffer (OptiMem without phenol red + 1% FBS) and added to cells at a final concentration of 3 μM and incubated at 37 °C 5% CO2 for 1 h. Cells were subsequently centrifuged using a BlueWasher instrument (Blue Cat Bio) to remove the DIBAC-CA solution and washed two times with HBSS (Ca2 + , Mg2 + ). A volume of 30 μL of assay buffer was added back to cell plates. Peptides were serially diluted 4-fold in DMSO with a Hamilton Star apparatus and then delivered into assay plates with an acoustic liquid handler Labcyte ECHO (300 nl, 1% DMSO in-well concentration). After incubating cells with peptide for the desired time (4 or 18 h), the HaloTag ligand, NanoBret618-azide, was added to each well at a final concentration of 10 μM. […] Following addition of NanoBRET Nano-Glo Substrate, donor emission (450 nm) and acceptor emission (610 nm) were measured using an Envision instrument (PerkinElmer).

[1] = Experimental LogD (partition coefficient); conditions: not stated, Partition Coeff LogD
[2] = Lactate dehydrogenase (LDH) release assay; assay type: cell-based
Summary of the method: (§1)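 Membrane damage measured as lactate dehydrogenase release (CytoTox-ONE kit) from p53-responsive β-lactamase reporter HCT116 cells plated at 8000 per well. Final DMSO 0.5%; geometric mean reported from a minimum of three biological replicates.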

[3] = Solubility assay (kinetic solubility, PBS pH 7); assay type: physicochemical; conditions: pH 7, PBS; for solubility kinetic: pH 7, aqueous buffer, kinetic from dmso stock, read-out: Solubility
Procedure: The standard reference solutions were prepared by diluting the 10 mM stock in 10:80:10 solution of acetonitrile:methanol:DMSO to 100 µM.
The solubility value is calculated by the following equation:
Solubility [µM] = (Peak area of sample/ Peak area of standard) (Standard concentration)

HCT116 cells = assay: Lactate dehydrogenase (LDH) release assay; assay type: cell-based
Summary of the method: as §1

[4] = Nanoclick permeability assay EC50

Row | Compound | cell entry EC50 (in vitro; [4]) | logD [1] | EC50 ([2]; LDH: Cytotoxicity assay EC50) | solubility kinetic [3] | LDH: Cytotoxicity assay: % Effect (HCT116 cells) | EC50 ([2]; LDH: Cytotoxicity assay: EC50) | cell entry EC50 (in vitro) | LDH: Cytotoxicity assay: % Effect (HCT116 cells; 0% FBS 4Hr) | LDH: Cytotoxicity assay: % Effect (HCT116 cells; 10% FBS 16Hr) | EC50 ([2]; 0% FBS 4Hr, read-out: LDH: Cytotoxicity assay: EC50) | EC50 ([2]; 10% FBS 16Hr, read-out: LDH: Cytotoxicity assay: EC50) | Solubility [3]
1 | CC(=O)N[C@@H](CCCCN=[N+]=[N-])C(=O)NCCC(=O)N[C@@H](CC(C)C)C(=O)N[C@H](C(=O)N[C@@H](Cc1ccccc1)C(=O)N[C@]1(C)CCCCCCC=CCCC[C@@](C)(C(=O)N2CCC[C@H]2C(=O)N2CCC[C@H]2C(=O)N2CCC[C@H]2C(=O)N2CCC[C@H]2C(=O)N2CCC[C@H]2C(=O)N2CCC[C@H]2C(N)=O)NC(=O)[C@H](CC2CCC2)NC(=O)[C@H](CCC(N)=O)NC(=O)[C@H](C)NC(=O)[C@H](Cc2c[nH]c3ccccc23)NC(=O)[C@H](Cc2ccc(O)cc2)NC(=O)[C@H](CCC(=O)O)NC1=O)[C@@H](C)O [MP-093] | 1380 nM | 2.28 | > 50700 nM | 156 µM (≈ 363 µg/mL) | – | – | – | – | – | – | – | –
2 | CC(C)C[C@@H]1NC(=O)[C@H](C)NC(=O)[C@H](Cc2c[nH]c3ccccc23)NC(=O)[C@H](Cc2ccc(O)cc2)NC(=O)[C@H](CCC(=O)O)NC(=O)[C@](C)(NC(=O)[C@H](Cc2ccccc2)NC(=O)[C@H](CO)NC(=O)[C@@H](NC(=O)[C@H](CO)NC(=O)CNC(=O)[C@H](CO)NC(=O)[C@H](CCCCN=[N+]=[N-])NC(=O)[C@@H](N)CCC(=O)O)[C@@H](C)O)CCCCCCC=CCCC[C@@](C)(C(N)=O)NC(=O)[C@H](CC(C)C)NC1=O [MP-0180] | 495 nM | 2.21 | – | 24 µM (≈ 46.4 µg/mL) | 13.96% | > 50600 nM | – | – | – | – | – | –
3 | CC(C)C[C@@H]1NC(=O)[C@H](C)NC(=O)[C@H](Cc2c[nH]c3ccccc23)NC(=O)[C@H](Cc2ccc(O)cc2)NC(=O)[C@H](CCC(=O)O)NC(=O)[C@](C)(NC(=O)[C@H](Cc2ccccc2)NC(=O)[C@H](CO)NC(=O)[C@@H](NC(=O)[C@H](CO)NC(=O)CNC(=O)[C@H](CO)NC(=O)[C@H](CCCCN=[N+]=[N-])NC(=O)[C@H](CCC(=O)O)NC(=O)[C@@H](N)CCC(=O)O)[C@@H](C)O)CCCCCCC=CCCC[C@@](C)(C(N)=O)NC(=O)[C@H](CC(C)C)NC1=O [MP-0181] (H-EE[Lys(N3)]SGSTSF[R8]EYWALL[S5]-NH2; staple 10-17) | 2070 nM | 2.05 | – | 106 µM (≈ 219 µg/mL) | 9.12% | > 50600 nM | – | – | – | – | – | –
4 | CC(=O)N[C@@H](CCCCN=[N+]=[N-])C(=O)NCCC(=O)N[C@@H](CC(C)C)C(=O)N[C@H](C(=O)N[C@@H](Cc1ccccc1)C(=O)N[C@]1(C)CCCCCCC=CCCC[C@@](C)(C(=O)NCC(=O)NCC(=O)NCC(=O)NCC(=O)NCC(=O)NCC(N)=O)NC(=O)[C@H](CC2CCC2)NC(=O)[C@H](CCC(N)=O)NC(=O)[C@H](C)NC(=O)[C@H](Cc2c[nH]c3ccccc23)NC(=O)[C@H](Cc2ccc(O)cc2)NC(=O)[C@H](CCC(=O)O)NC1=O)[C@@H](C)O [MP-289] (Ac-[Lys(N3)][βAla]LTF[R8]EYWAQ[Cba][S5]GGGGGG-NH2; staple 6-13) | – | 2.58 | – | 142 µM (≈ 296 µg/mL) | – | – | 615 nM | -4.216% | 3.579% | > 50700 nM | > 50700 nM | –
5 | CC(=O)N[C@@H](CCC(=O)O)C(=O)N[C@@H](CCC(=O)O)C(=O)N[C@@H](CCCCN=[N+]=[N-])C(=O)NCCCCCC(=O)N[C@H](C(=O)N[C@@H](CO)C(=O)N[C@@H](Cc1ccccc1)C(=O)N[C@]1(C)CCCCCCC=CCCC[C@@](C)(C(N)=O)NC(=O)[C@H](CC(C)C)NC(=O)[C@H](CC(C)C)NC(=O)[C@H](C)NC(=O)[C@H](Cc2c[nH]c3ccccc23)NC(=O)[C@H](Cc2ccc(O)cc2)NC(=O)[C@H](CCC(=O)O)NC1=O)[C@@H](C)O [MP-661] | 546 nM | 2.02 | > 50000 nM | 27 µM (≈ 53.7 µg/mL) | – | – | – | – | – | – | – | –
6 | CC(=O)N[C@@H](CCC(=O)O)C(=O)N[C@@H](CCC(=O)O)C(=O)N[C@@H](CCC(=O)O)C(=O)N[C@@H](CCCCN=[N+]=[N-])C(=O)NCCC(=O)N[C@@H](CC(C)C)C(=O)N[C@H](C(=O)N[C@@H](Cc1ccccc1)C(=O)N[C@]1(C)CCCCCCC=CCCC[C@@](C)(C(=O)N[C@@H](CCC(=O)O)C(=O)N[C@@H](CC(N)=O)C(=O)N[C@@H](Cc2ccccc2)C(N)=O)NC(=O)[C@H](CC2CCC2)NC(=O)[C@H](CCC(N)=O)NC(=O)[C@H](C)NC(=O)[C@H](Cc2c[nH]c3ccccc23)NC(=O)[C@H](Cc2ccc(O)cc2)NC(=O)[C@H](CCC(=O)O)NC1=O)[C@@H](C)O [MP-763] (Ac-EEE[Lys(N3)][βAla]LTF[R8]EYWAQ[Cba][S5]ENF-NH2; staple 9-16) | 1140 nM | 1.86 | – | 156 µM (≈ 393 µg/mL) | – | > 50700 nM | – | – | – | – | – | –
7 | C[C@H](NC(=O)[C@H](C)NC(=O)[C@H](C)NC(=O)[C@]1(C)CCCC=CCCCCCC[C@@](C)(NC(=O)[C@H](Cc2ccccc2)NC(=O)[C@@H](NC(=O)[C@H](C)NC(=O)CCNC(=O)[C@H](CCCCN=[N+]=[N-])NC(=O)[C@H](C)NC(=O)[C@H](C)NC(=O)[C@H](CCCNC(=N)N)NC(=O)[C@H](CCCNC(=N)N)NC(=O)[C@H](CO)NC(=O)[C@H](CCCNC(=N)N)NC(=O)[C@H](CO)NC(=O)[C@H](CCCNC(=N)N)NC(=O)CN)[C@@H](C)O)C(=O)N[C@@H](C)C(=O)N[C@@H](Cc2ccc(O)cc2)C(=O)N[C@@H](Cc2c[nH]c3ccccc23)C(=O)N[C@@H](C)C(=O)N[C@@H](C)C(=O)N[C@@H](CC2CCC2)C(=O)N1)C(N)=O [MP-878] (H-GRSRSRRAA[Lys(N3)][βAla]ATF[R8]AYWAA[Cba][S5]AAA-NH2; staple 15-22) | 2100 nM | 2.81 | – | – | – | – | – | – | – | – | – | Poorly Behaved
8 | CC(C)C[C@@H]1NC(=O)[C@H](C)NC(=O)[C@H](Cc2c[nH]c3ccccc23)NC(=O)[C@H](Cc2ccc(O)cc2)NC(=O)[C@H](CCC(=O)O)NC(=O)[C@](C)(NC(=O)[C@H](Cc2ccccc2)NC(=O)[C@H](CO)NC(=O)[C@@H](NC(=O)[C@H](CO)NC(=O)CNC(=O)[C@H](CO)NC(=O)[C@H](CCCCN=[N+]=[N-])NC(=O)[C@H](CCC(=O)O)NC(=O)[C@H](CCC(=O)O)NC(=O)[C@@H](N)CCC(=O)O)[C@@H](C)O)CCCCCCC=CCCC[C@@](C)(C(N)=O)NC(=O)[C@H](CC(C)C)NC1=O [MP-948] (H-EEE[Lys(N3)]SGSTSF[R8]EYWALL[S5]-NH2; staple 11-18) | > 10000 nM | 1.48 | > 50000 nM | 112 µM (≈ 245 µg/mL) | – | – | – | – | – | – | – | –
9 | CC(C)C[C@@H]1NC(=O)[C@H](C)NC(=O)[C@H](Cc2c[nH]c3ccccc23)NC(=O)[C@H](Cc2ccc(O)cc2)NC(=O)[C@H](CCC(=O)O)NC(=O)[C@](C)(NC(=O)[C@H](Cc2ccccc2)NC(=O)[C@H](CO)NC(=O)[C@@H](NC(=O)[C@H](CO)NC(=O)CNC(=O)[C@H](CO)NC(=O)[C@H](CCCCN=[N+]=[N-])NC(=O)[C@H](CCC(=O)O)NC(=O)[C@H](CCC(=O)O)NC(=O)[C@@H](N)CCC(=O)O)[C@@H](C)O)CCCCCCC=CCCC[C@@](C)(C(=O)N[C@@H](CCC(=O)O)C(=O)N[C@@H](CC(N)=O)C(N)=O)NC(=O)[C@H](CC(C)C)NC1=O [MP-949] (H-EEE[Lys(N3)]SGSTSF[R8]EYWALL[S5]EN-NH2; staple 11-18) | 4350 nM | 1.66 | > 50000 nM | 104 µM (≈ 253 µg/mL) | – | – | – | – | – | – | – | –
10 | CC(C)C[C@@H]1NC(=O)[C@H](C)NC(=O)[C@H](Cc2c[nH]c3ccccc23)NC(=O)[C@H](Cc2ccc(O)cc2)NC(=O)[C@H](CCC(=O)O)NC(=O)[C@](C)(NC(=O)[C@H](Cc2ccccc2)NC(=O)[C@H](CO)NC(=O)[C@@H](NC(=O)[C@H](CO)NC(=O)CNC(=O)[C@H](CO)NC(=O)[C@@H](N)CCCCN=[N+]=[N-])[C@@H](C)O)CCCCCCC=CCCC[C@@](C)(C(=O)N[C@@H](CCC(=O)O)C(=O)N[C@@H](CCC(=O)O)C(=O)N[C@@H](CCC(=O)O)C(N)=O)NC(=O)[C@H](CC(C)C)NC1=O [MP-951] (H-[Lys(N3)]SGSTSF[R8]EYWALL[S5]EEE-NH2; staple 8-15) | 2150 nM | 1.94 | > 50000 nM | 119 µM (≈ 261 µg/mL) | – | – | – | – | – | – | – | –
